What all share (assay type): functional
Experiment [1] deals with Escherichia coli. Kind of experiment: Antibacterial activity against Escherichia coli ATCC 25922 after 20 hrs by CLSI based-broth microdilution method. Particulars: ATCC 25922, 20 h.
Experiment [2] deals with Streptococcus pneumoniae. Kind of experiment: Antibacterial activity against Streptococcus pneumoniae ATCC 49619 after 20 hrs by CLSI based-broth microdilution method. Particulars: ATCC 49619, 20 h.
The subject of experiment [3] is Pseudomonas aeruginosa. Kind of experiment: Antibacterial activity against Pseudomonas aeruginosa ATCC 27853 after 20 hrs by CLSI based-broth microdilution method. Particulars: ATCC 27853, 20 h. (Dilution methods test growth across graded concentrations, often in twofold steps.)
Experiment [4] relates to Klebsiella pneumoniae. Kind of experiment: Antibacterial activity against Klebsiella pneumoniae ATCC 700603 after 20 hrs by CLSI based-broth microdilution method. Particulars: ATCC 700603, 20 h.
Experiment [5] has as its system Enterobacter cloacae. Kind of experiment: Antibacterial activity against Enterobacter cloacae ATCC 13047 after 20 hrs by CLSI based-broth microdilution method. Particulars: subsp. cloacae ATCC 13047, 20 h.
Experiment [6] concerns Acinetobacter baumannii. Description: Antibacterial activity against Acinetobacter baumannii ATCC 19606 after 20 hrs by CLSI based-broth microdilution method. The settings on record: ATCC 19606 = CIP 70.34 = JCM 6841, 20 h.
Experiment [7] relates to Streptococcus pyogenes. Description: Antibacterial activity against Streptococcus pyogenes ATCC 19615 after 20 hrs by CLSI based-broth microdilution method. The settings on record: ATCC 19615, 20 h.
Experiment [8] has as its system Staphylococcus saprophyticus. Kind of experiment: Antibacterial activity against Staphylococcus saprophyticus ATCC 15305 after 20 hrs by CLSI based-broth microdilution method. Particulars: subsp. saprophyticus ATCC 15305, 20 h.
Experiment [9] deals with Streptococcus agalactiae. Kind of experiment: Antibacterial activity against Streptococcus agalactiae ATCC 12386 after 20 hrs by CLSI based-broth microdilution method. Particulars: ATCC 12386, 20 h.
For experiment [10], the system named is Enterococcus faecalis. Description: Antibacterial activity against Enterococcus faecalis ATCC 19433 after 20 hrs by CLSI based-broth microdilution method. Particulars: ATCC 19433, 20 h.

Converted amounts (≈) assume the structure as drawn.

Broadly, the MIC is the lowest concentration that inhibits growth of the organism. A high value points to weaker potency.

`CC(C)(C)c1cccc(Nc2ccc(C(=O)c3ccccc3C(=O)O)cc2[N+](=O)[O-])c1`: the MIC in [1] is > 256 µg/mL; in experiment [2] it was 256 µg/mL (≈ 612 µM); in [3], > 256 µg/mL; in [4], > 256 µg/mL; in experiment [5], > 256 µg/mL; in [6], > 256 µg/mL.
Regarding `Nc1ccccc1Sc1ccc(CNc2cccc(C(=O)O)c2)cc1[N+](=O)[O-]`, the MIC in experiment [1] was > 256 µg/mL; in experiment [2], 64 µg/mL (≈ 162 µM); in experiment [3], > 256 µg/mL; in [4], > 256 µg/mL; in experiment [5], > 256 µg/mL; in experiment [6], > 256 µg/mL.
Take `Cc1cccc([N+](=O)[O-])c1Sc1ccc(C(=O)c2ccccc2C(=O)O)cc1[N+](=O)[O-]`: the MIC was > 256 µg/mL in [1]; 128 µg/mL (≈ 292 µM) in experiment [2]; > 256 µg/mL in experiment [3]; > 256 µg/mL in [4]; > 256 µg/mL in experiment [5]; > 256 µg/mL in [6].
Turning to `Cc1ccc(C(=O)O)cc1NCc1ccc(Sc2ccc(Cl)c(Cl)c2)c([N+](=O)[O-])c1`, the MIC in experiment [1] was > 256 µg/mL; in experiment [2] it was 16 µg/mL (≈ 34.5 µM); in [3], > 256 µg/mL; in experiment [4], > 256 µg/mL; in [5] it was > 256 µg/mL; in experiment [6], > 256 µg/mL.
`O=C(O)c1ccccc1C(=O)c1ccc(Sc2ccccn2)c([N+](=O)[O-])c1`: the MIC in [1], in experiment [2], in experiment [3], in experiment [4], in experiment [5] and in [6] was > 256 µg/mL in each case.
Turning to `O=C(Nc1ccccc1C(=O)O)c1ccc(Sc2ccc(Cl)c(Cl)c2)c([N+](=O)[O-])c1`, the minimal inhibitory concentration (MIC) in experiment [1], in experiment [2], in experiment [3], in [4], in experiment [5] and in experiment [6] was > 256 µg/mL each time.
On to `Nc1ccccc1Sc1ccc(CNc2ccccc2C(=O)O)cc1[N+](=O)[O-]`, for which the minimal inhibitory concentration (MIC) in [1] is > 256 µg/mL; in experiment [2] it was 64 µg/mL (≈ 162 µM); in experiment [3], > 256 µg/mL; in [4], > 256 µg/mL; in [5], > 256 µg/mL; in experiment [6], > 256 µg/mL.
For the compound `O=C(O)c1ccccc1C(=O)c1ccc(Sc2ccccc2F)c([N+](=O)[O-])c1`, the minimum inhibitory concentration (MIC) in experiment [1] is > 256 µg/mL; in experiment [2] it was 128 µg/mL (≈ 322 µM); in experiment [3], > 256 µg/mL; in experiment [4] it was > 256 µg/mL; in [5] it was > 256 µg/mL; in experiment [6] it was > 256 µg/mL.
On to `Nc1cc(C(=O)c2ccccc2C(=O)O)ccc1Sc1ccc(Cl)c(Cl)c1`, for which the minimum inhibitory concentration (MIC) in experiment [1] was > 256 µg/mL; in experiment [2] it was 32 µg/mL (≈ 76.5 µM); in experiment [3] it was > 256 µg/mL; in experiment [4], > 256 µg/mL; in experiment [5], > 256 µg/mL; in experiment [6] it was > 256 µg/mL.
Take `CCN(CC)C(=O)c1ccc(Sc2ccc(C(=O)c3ccccc3C(=O)O)cc2[N+](=O)[O-])c([N+](=O)[O-])c1`: the minimal inhibitory concentration (MIC) was > 256 µg/mL in [1]; 256 µg/mL (≈ 489 µM) in experiment [2]; > 256 µg/mL in experiment [3]; > 256 µg/mL in [4]; > 256 µg/mL in experiment [5]; > 256 µg/mL in experiment [6].
With `NC(=O)c1cccc(Nc2ccc(C(=O)c3ccccc3C(=O)O)cc2[N+](=O)[O-])c1`, the MIC in [1], in [2], in [3], in experiment [4], in experiment [5] and in experiment [6] was > 256 µg/mL in each case.
As for `O=C(O)c1ccccc1C(=O)c1ccc(N2CCOCC2)c([N+](=O)[O-])c1`, the minimum inhibitory concentration (MIC) in [1], in experiment [2], in experiment [3], in experiment [4], in experiment [5] and in [6] was > 256 µg/mL each time.
In the case of `NS(=O)(=O)c1cccc(NCc2ccc(Sc3ccc(Cl)c(Cl)c3)c([N+](=O)[O-])c2)c1`, the MIC is > 256 µg/mL in [1]; 64 µg/mL (≈ 132 µM) in [2]; > 256 µg/mL in [3]; > 256 µg/mL in experiment [4]; > 256 µg/mL in [5]; > 256 µg/mL in experiment [6].
Consider `Cc1cccc(Nc2ccc(C(=O)c3ccccc3C(=O)O)cc2[N+](=O)[O-])c1`, for which the MIC is > 256 µg/mL in experiment [1]; 128 µg/mL (≈ 340 µM) in experiment [2]; > 256 µg/mL in experiment [3]; > 256 µg/mL in experiment [4]; > 256 µg/mL in experiment [5]; > 256 µg/mL in experiment [6].
For `O=C(Nc1cccc(Sc2ccc(C(=O)c3ccccc3C(=O)O)cc2[N+](=O)[O-])c1)c1ccccc1`, the minimum inhibitory concentration (MIC) is > 256 µg/mL in [1]; 32 µg/mL (≈ 64.2 µM) in experiment [2]; > 256 µg/mL in experiment [3]; > 256 µg/mL in experiment [4]; > 256 µg/mL in experiment [5]; > 256 µg/mL in experiment [6].
For the compound `NC(=O)c1ccccc1NCc1ccc(Sc2ccc(Cl)c(Cl)c2)c([N+](=O)[O-])c1`, the MIC in [1], in experiment [2], in [3], in [4], in experiment [5] and in experiment [6] was > 256 µg/mL in each case.
In the case of `CN[C@H](CC(C)C)C(=O)N[C@H]1C(=O)N[C@@H](CC(N)=O)C(=O)N[C@H]2C(=O)N[C@H]3C(=O)N[C@H](C(=O)N[C@H](C(=O)O)c4cc(O)cc(O)c4-c4cc3ccc4O)[C@H](O)c3ccc(c(Cl)c3)Oc3cc2cc(c3O[C@@H]2O[C@H](CO)[C@@H](O)[C@H](O)[C@H]2O[C@H]2C[C@](C)(N)[C@H](O)[C@H](C)O2)Oc2ccc(cc2Cl)[C@H]1O` [VANCOMYCIN], the MIC in experiment [7], in experiment [8], in experiment [2], in experiment [9] and in experiment [10] was 1 µg/mL (≈ 0.69 µM) each time.
`Nc1ccccc1Sc1ccc(C(=O)Nc2cccc(C(=O)O)c2)cc1[N+](=O)[O-]`: the MIC was > 256 µg/mL in experiment [1]; 128 µg/mL (≈ 313 µM) in [2]; > 256 µg/mL in [3]; > 256 µg/mL in experiment [4]; > 256 µg/mL in [5]; > 256 µg/mL in experiment [6].
As for `CC(=O)Nc1cccc(Sc2ccc(C(=O)c3ccccc3C(=O)O)cc2[N+](=O)[O-])c1`, the MIC was > 256 µg/mL in experiment [1]; 256 µg/mL (≈ 587 µM) in [2]; > 256 µg/mL in [3]; > 256 µg/mL in experiment [4]; > 256 µg/mL in [5]; > 256 µg/mL in [6].
For the compound `NC(=O)c1cccc(NCc2ccc(Sc3ccc(Cl)c(Cl)c3)c([N+](=O)[O-])c2)c1`, the minimal inhibitory concentration (MIC) in experiment [1], in experiment [2], in experiment [3], in experiment [4], in experiment [5] and in experiment [6] was > 256 µg/mL each time.
In the case of `O=C(O)c1ccccc1C(=O)c1ccc(Nc2cccc3cccnc23)c([N+](=O)[O-])c1`, the MIC in experiment [1], in experiment [2], in experiment [3], in experiment [4], in [5] and in experiment [6] was > 256 µg/mL each time.

These data come from ChEMBL document CHEMBL4616723, “Discovery of Antibacterials That Inhibit Bacterial RNA Polymerase Interactions with Sigma Factors” (J Med Chem, 2020).
